Columns and labels:
Assay in all cases: MIC, DST agar + 10% horse blood
Type in all cases: cell-based
Pseudomonas aeruginosa A = details: Pseudomonas aeruginosa A; DST agar + 10% horse blood; inoculum 0.001 ml of a 10^-2 dilution for G + ve bacteria or a 10^-4 dilution for G - ve organisms; read-out: MIC Agar
Text: (§1) The ninimum inhibitory concentrations (MIC) cf this compound required to inhibit the growth of various bacteria are tabulated balow: […]

Proteus rettgeri WM16 = details: Providencia rettgeri; Proteus rettgeri WM16; DST agar + 10% horse blood; inoculum 0.001 ml of a 10^-2 dilution for G + ve bacteria or a 10^-4 dilution for G - ve organisms; read-out: MIC Agar
Text: as §1

Escherichia coli 0111 = details: Escherichia coli 0111, inoculum 0.001 ml of a 10^-2 dilution for G + ve bacteria or a 10^-4 dilution for G - ve organisms
Text: as §1

E. coli ESS = details: Escherichia coli, inoculum 0.001 ml of a 10^-2 dilution for G + ve bacteria or a 10^-4 dilution for G - ve organisms
Text: as §1

[1] = system: Staphylococcus aureus Oxford; details: Staphylococcus aureus Oxford; DST agar + 10% horse blood; inoculum 0.001 ml of a 10^-2 dilution for G + ve bacteria or a 10^-4 dilution for G - ve organisms; read-out: MIC Agar
Text: as §1

Enterobacter cloacae N1 = details: Enterobacter cloacae N1; DST agar + 10% horse blood; inoculum 0.001 ml of a 10^-2 dilution for G + ve bacteria or a 10^-4 dilution for G - ve organisms; read-out: MIC Agar
Text: as §1

Citrobacter freundii E8 = details: Citrobacter freundii E8; DST agar + 10% horse blood; inoculum 0.001 ml of a 10^-2 dilution for G + ve bacteria or a 10^-4 dilution for G - ve organisms; read-out: MIC Agar
Text: as §1

Proteus vulgaris W091 = details: Proteus vulgaris W091; DST agar + 10% horse blood; inoculum 0.001 ml of a 10^-2 dilution for G + ve bacteria or a 10^-4 dilution for G - ve organisms; read-out: MIC Agar
Text: as §1

Proteus morganii I580 = details: Morganella morganii; Proteus morganii I580; DST agar + 10% horse blood; inoculum 0.001 ml of a 10^-2 dilution for G + ve bacteria or a 10^-4 dilution for G - ve organisms; read-out: MIC Agar
Text: as §1

Proteus mirabilis C977 = details: Proteus mirabilis C977; DST agar + 10% horse blood; inoculum 0.001 ml of a 10^-2 dilution for G + ve bacteria or a 10^-4 dilution for G - ve organisms; read-out: MIC Agar
Text: as §1

Serratia marcescens US20 = details: Serratia marcescens US20; DST agar + 10% horse blood; inoculum 0.001 ml of a 10^-2 dilution for G + ve bacteria or a 10^-4 dilution for G - ve organisms; read-out: MIC Agar
Text: as §1

[2] = system: Salmonella typhimurium CT10; details: Salmonella enterica; Salmonella typhimurium CT10; DST agar + 10% horse blood; inoculum 0.001 ml of a 10^-2 dilution for G + ve bacteria or a 10^-4 dilution for G - ve organisms; read-out: MIC Agar
Text: as §1

[3] = system: Streptococcus pneumoniae CN33; details: Streptococcus pneumoniae CN33; DST agar + 10% horse blood; inoculum 0.001 ml of a 10^-2 dilution for G + ve bacteria or a 10^-4 dilution for G - ve organisms; read-out: MIC Agar
Text: as §1

[4] = system: Staphylococcus aureus 1517; details: Staphylococcus aureus 1517; DST agar + 10% horse blood; inoculum 0.001 ml of a 10^-2 dilution for G + ve bacteria or a 10^-4 dilution for G - ve organisms; read-out: MIC Agar
Text: as §1

[5] = system: Streptococcus pyogenes CN10; details: Streptococcus pyogenes CN10; DST agar + 10% horse blood; inoculum 0.001 ml of a 10^-2 dilution for G + ve bacteria or a 10^-4 dilution for G - ve organisms; read-out: MIC Agar
Text: as §1

Shigella sonnei MB 11967 = details: MB11967, inoculum 0.001 ml of a 10^-2 dilution for G + ve bacteria or a 10^-4 dilution for G - ve organisms
Text: as §1

[6] = system: Staphylococcus aureus Russell; details: Staphylococcus aureus Russell; DST agar + 10% horse blood; inoculum 0.001 ml of a 10^-2 dilution for G + ve bacteria or a 10^-4 dilution for G - ve organisms; read-out: MIC Agar
Text: as §1

Streptococcus faecalis I = details: Enterococcus faecalis; Streptococcus faecalis I; DST agar + 10% horse blood; inoculum 0.001 ml of a 10^-2 dilution for G + ve bacteria or a 10^-4 dilution for G - ve organisms; read-out: MIC Agar
Text: as §1

Escherichia coli JT 39 = details: JT39; Escherichia coli JT 39; DST agar + 10% horse blood; inoculum 0.001 ml of a 10^-2 dilution for G + ve bacteria or a 10^-4 dilution for G - ve organisms; read-out: MIC Agar
Text: as §1

Klebsiella aerogenes A = details: Klebsiella aerogenes A; DST agar + 10% horse blood; inoculum 0.001 ml of a 10^-2 dilution for G + ve bacteria or a 10^-4 dilution for G - ve organisms; read-out: MIC Agar
Text: as §1

Bacillus subtilis A = details: Bacillus subtilis A; DST agar + 10% horse blood; inoculum 0.001 ml of a 10^-2 dilution for G + ve bacteria or a 10^-4 dilution for G - ve organisms; read-out: MIC Agar
Text: as §1

Work on `O=C(O)C1=C(CO)SC2CC(=O)N12` (stereo not drawn) [compound 19, Sodium 2-Hydroxymethyl penem-3-carboxylate] yielded an MIC (Pseudomonas aeruginosa A) of 50 µg/mL, an MIC (Proteus rettgeri WM16) of 50 µg/mL and an MIC (Escherichia coli 0111) of 10 µg/mL. It also gave an MIC (E. coli ESS) of 10 µg/mL, an MIC [1] of 2.5 µg/mL and an MIC (Enterobacter cloacae N1) of 50 µg/mL. The MIC (Citrobacter freundii E8) was 10 µg/mL, the MIC (Proteus vulgaris W091) was 50 µg/mL and the MIC (Proteus morganii I580) was 25 µg/mL. For the same compound, the MIC (Proteus mirabilis C977) was 25 µg/mL, the MIC (Serratia marcescens US20) was 10 µg/mL and the MIC [2] was 10 µg/mL. For the same compound, the MIC [3] was 1 µg/mL, the MIC [4] was 25 µg/mL and the MIC [5] was 1 µg/mL. For the same compound, the MIC (Shigella sonnei MB 11967) was 10 µg/mL, the MIC [6] was 2.5 µg/mL and the MIC (Streptococcus faecalis I) was 100 µg/mL. The MIC (Escherichia coli JT 39) was 10 µg/mL, the MIC (Klebsiella aerogenes A) was 10 µg/mL and the MIC (Bacillus subtilis A) was 2.5 µg/mL.
`CC(=O)OCC1=C(C(=O)O)N2C(=O)CC2S1` (stereo not drawn) [compound 21, Sodium 2-Acetoxymethyl penem-3-carboxylate] was tested, and the MIC (Pseudomonas aeruginosa A) was > 100 µg/mL, the MIC (Proteus rettgeri WM16) was 50 µg/mL and the MIC (Escherichia coli 0111) was 25 µg/mL. It also gave an MIC (E. coli ESS) of 10 µg/mL, an MIC [1] of 10 µg/mL and an MIC (Enterobacter cloacae N1) of 100 µg/mL. It also gave an MIC (Citrobacter freundii E8) of 10 µg/mL, an MIC (Proteus vulgaris W091) of 50 µg/mL and an MIC (Proteus morganii I580) of 10 µg/mL. For the same compound, the MIC (Proteus mirabilis C977) was 10 µg/mL, the MIC (Serratia marcescens US20) was 25 µg/mL and the MIC [2] was 25 µg/mL. It also gave an MIC [3] of 0.5 µg/mL, an MIC [4] of 50 µg/mL and an MIC [5] of 2.5 µg/mL. The MIC (Shigella sonnei MB 11967) was 50 µg/mL, the MIC [6] was 10 µg/mL and the MIC (Streptococcus faecalis I) was 100 µg/mL. The MIC (Escherichia coli JT 39) was 50 µg/mL, the MIC (Klebsiella aerogenes A) was 10 µg/mL and the MIC (Bacillus subtilis A) was 2.5 µg/mL.

— patent publication EP0013067A1, “Bicyclic beta-lactam antibacterial agents, their use in pharmaceutical compositions, processes for their preparation and intermediates for use in such processes” (BEECHAM GROUP PLC, priority 1978, dated 1980)
